Tests used:
[1] = system: human umbilical vein endothelial cells (HUVEC); experiment: Wounding migration assay in endothelial cell culture; assay type: cell-based; conditions: wounded HUVEC monolayer, 24 hours after wounding, active agent 10^-6 M
Excerpt: The following compounds of the Invention are especially preferable: • 1. N-[3-(1-piperidinyl)propoxy]-pyridin-1-oxide-3-carboxamidine • 2. N-[3-(1-piperidinyl)propoxy]-pyridin-1-oxide-3-carboximidoyl chloride • 3. N-[2-hydroxy-3-(1-piperidinyl)propoxy]-N′-n-butyl-pyridin-1-oxide-4-carboxamidine • 4. N-[3-(1-oxido-1-piperidinyl)propoxy]-3-nitro-benzimidoyl-chloride dihydrate • 5. 2-chloro-N-[3-(4-oxido-4-morpholinyl)propoxy]-benzimidoyl chloride • 6. (R,S)-5,6-dihydro-5-[(1-piperidinyl)methyl]-3-(1-oxido-3-pyridyl)-4H-1,2,4-oxadiazine • 7. 5,6-dihydro-5-[(4-benzyl-1-piperidinyl)methyl]-3-(3-pyridyl)-4H-1,2,4-oxadiazine • 8. (R) or (S)-5,6-dihydro-5-[(2-oxo-1-piperidinyl)methyl]-3-(3-pyridyl)-4H-1,2,4-oxadiazine • 9. (+)-5,6-dihydro-5-[(1-piperidlnyl)methyl]-3-(1-oxido-3-pyridyl)4H-1,2,4-oxadiazine • 10. (R) or (S)-5,6-dihydro-5-[(1-oxido-1-piperidinyl)methyl]-3-(1-oxido-3-pyridyl)-4H-1,2,4-oxadiazine • 11. 5.6-dihydro-5-[(4-hydroxy-1-piperidinyl)methyl]-3-(3-pyridyl)-4H-1,2,4-oxadiazine • 12. N-[2-chloro-3-(1-piperidinly)propoxyl]-benzimidoyl chloride hydrochloride • 13. N-[2-hydroxy-3-(1-piperidinyl)propoxy]-pyridin-1-oxide-3-carboxamide • The biological effects of the compounds of the invention were tested by the following experiments: • Wounding migration assay in endothelial cell culture
The effect of the compounds of the invention on the wounded monolayers of human umbilical vein endothelial cells (HUVEC) were studied in a cell culture system (in vitro). After reaching confluence, the HUVEC cells were wounded according to the method of Yamamura et al (J. Surgical Res. 63, 349-354, 1996). The number of migrated cells were registered using computerized image analysis 24 hours after wounding in the absence and presence of the active agents under testing in a concentration of 10^−6 M. The active ingredient described in publication no. WO 98/06400, namely 5,6-dihydro-5-(1-piperidinyl)-methyl-3-(3-pyridyl)-4H-1,2,4-oxadiazine was used as reference compound.

[2] = system: thoracic aorta of SH rats; experiment: Vaso-relaxing effect on the thoracic aorta of SH rats treated for one month (in vitro testing of aorta rings); assay type: in vivo, rat; conditions: aorta rings contracted with 10^-6 M methoxamine
Description: In the following, we give the results of the test of blood vessel relaxing effect, performed in vitro on rat vessels, and also the morpholocial results of the thoracic aorta.
(§1) Three-month-old, genetically hypertonic (SH) Wistar Okamoto rats were treated for one month with various test compounds. Thereafter the functional and morphological tests were performed.
The Vaso-relaxing Effect of the Compounds of the Invention on the Thoracic Aorta of SH Rats (in Vitro Testing)
The test was performed by the method known from the literature [Japan J. Pharmacol., 59, 339-347 (1992)]. The SH rats were anesthetized with Nembutal (40 mg/kg, i. p.), then the thoracic aorta was removed and placed in oxygenized (95% O2+5% CO2) Krebs-Henseleit solution. The composition of the solution (mM): NaCl 118, KCl 4,7, CaCl2 2,52, MgSO4 1,64, NaHCO3 24,88, KH2PO4 1,18, glucose 5,5. The 3-mm-long aorta rings were suspended in a 20 ml organ bath of 37° C. The resting tension was 1 g, which was maintained throughout the equilibration. During the 1 hour equilibration, the medium was changed in every 20 minutes. The vessels were contracted with 10^−6 M methoxamine (approx. 80% of maximal contraction). After reaching the maximal contraction, we tested the vasodilation resulting as the effect of the acetylcholine (Ach) (10^−6-10^−4 M), which informed us about the condition of the endothelium of the vessel wall. The contraction force was measured by an isometric strain gauge (SG-01D, Experimentia Ltd), and was registered on an OH-850 polygraph (Radelkis). At this time again, 5,6-dihydro-5-(1-piperidinyi)-methyl-3-(3-pyridyl)-4H-1,2,4-oxadiazine as described in WO 98/06400 was used as a reference compound.

[3] = system: thoracic aorta of SH rats; experiment: Morphological testing of the thoracic aortas with electron microscopy; assay type: in vivo, rat; design: key: 1 was used to refer to cases where no regeneration was observable; 2 refers to weak; 3 to average; 4 to good; 5 to strong regeneration; conditions: SH rats treated one month, scale of 1 to 5, electron microscopy of thoracic aorta
Description: as §1
Morphological Testing of the Thoracic Aortas with Electron Microscopy
The test was performed according to the procedure known from the literature (Br. J. of Pharmacol., 1995; 115, 415-420). 1 mm^2 pieces of the aorta wall was cut out of the thoracic aorta of the rats, and were then fixed with 2.5% glutaraldehyde at room temperature for 2 hours. This was followed by a post-fixation with 1% osmium tetroxide for 1 hour. Afterwards, the tissue pieces were dehydrated with ethanol, and embedded in Durcupan ACM. The samples were evaluated qualitatively based on the images recorded on a Hitachi 7100 electron microscope.
On the scale, 1 was used to refer to cases where no regeneration was observable, 2 refers to weak, 3 to average, 4 to good, and 5 to strong regeneration.

SMILES	number of migrated cells [1] [cell/mm^2]	vessel relaxing effect (vasodilation by acetylcholine) ([2]; Ach 10^-4 M, 20 mg/kg)	vessel relaxing effect (vasodilation by acetylcholine) ([2]; Ach 10^-5 M, 20 mg/kg)	vessel relaxing effect (vasodilation by acetylcholine) ([2]; Ach 10^-6 M, 20 mg/kg)	Degree of regeneration ([3]; 20 mg/kg p.o.)	further results
c1cncc(C2=NOCC(CN3CCCCC3)N2)c1 (stereo not shown) [Reference, 5,6-dihydro-5-(1-piperidinyl)-methyl-3-(3-pyridyl)-4H-1,2,4-oxadiazine, reference compound]	30	81.7	80.2	77.4	–	–
O=C1CCCCN1CC1CON=C(c2cccnc2)N1 (single isomer, unassigned) [Compound 8, (R) or (S)-5,6-dihydro-5-[(2-oxo-1-piperidinyl)methyl]-3-(3-pyridyl)-4H-1,2,4-oxadiazine]	48	89.2	88.0	80.3	–	Degree of regeneration ([3]; 5 mg/kg p.o.): 5
Cl.ClC(=NOCC(Cl)CN1CCCCC1)c1ccccc1 (stereo not shown) [Compound 12, N-[2-chloro-3-(1-piperidinly)propoxyl]-benzimidoyl chloride hydrochloride]	60	80.4	83.5	82.3	3	–
O=C(NOCC(O)CN1CCCCC1)c1ccc[n+]([O-])c1 (stereo not shown) [Compound 13, N-[2-hydroxy-3-(1-piperidinyl)propoxy]-pyridin-1-oxide-3-carboxamide]	54	–	–	–	4	vessel relaxing effect (vasodilation by acetylcholine) ([2]; Ach 10^-4 M, dose not given): 95.2; vessel relaxing effect (vasodilation by acetylcholine) ([2]; Ach 10^-5 M, dose not given): 90.3; vessel relaxing effect (vasodilation by acetylcholine) ([2]; Ach 10^-6 M, dose not given): 88.4
O.O.O=[N+]([O-])c1cccc(C(Cl)=NOCCC[N+]2([O-])CCCCC2)c1 [Compound 4, N-[3-(1-oxido-1-piperidinyl)propoxy]-3-nitro-benzimidoyl-chloride dihydrate]	45	–	–	–	5	vessel relaxing effect (vasodilation by acetylcholine) ([2]; Ach 10^-4 M, 5 mg/kg): 88.1; vessel relaxing effect (vasodilation by acetylcholine) ([2]; Ach 10^-5 M, 5 mg/kg): 84.9; vessel relaxing effect (vasodilation by acetylcholine) ([2]; Ach 10^-6 M, 5 mg/kg): 82.5
[O-][n+]1cccc(C2=NOCC(CN3CCCCC3)N2)c1 (single isomer, unassigned; (+)) [Compound 9, (+)-5,6-dihydro-5-[(1-piperidinyl)methyl]-3-(1-oxido-3-pyridyl)-4H-1,2,4-oxadiazine]	52	–	–	–	–	vessel relaxing effect (vasodilation by acetylcholine) ([2]; Ach 10^-4 M, 5 mg/kg): 93.2; vessel relaxing effect (vasodilation by acetylcholine) ([2]; Ach 10^-5 M, 5 mg/kg): 87.9; vessel relaxing effect (vasodilation by acetylcholine) ([2]; Ach 10^-6 M, 5 mg/kg): 87.0; Degree of regeneration ([3]; 5 mg/kg p.o.): 5
OC1CCN(CC2CON=C(c3cccnc3)N2)CC1 (stereo not shown) [Compound 11, 5.6-dihydro-5-[(4-hydroxy-1-piperidinyl)methyl]-3-(3-pyridyl)-4H-1,2,4-oxadiazine]	51	–	–	–	–	vessel relaxing effect (vasodilation by acetylcholine) ([2]; Ach 10^-4 M, 10 mg/kg): 86.0; vessel relaxing effect (vasodilation by acetylcholine) ([2]; Ach 10^-5 M, 10 mg/kg): 85.1; vessel relaxing effect (vasodilation by acetylcholine) ([2]; Ach 10^-6 M, 10 mg/kg): 79.7; Degree of regeneration ([3]; 10 mg/kg p.o.): 4
